The source of these data is patent US9884048B2, “ERK inhibitors” (Merck Sharp & Dohme Corp., priority 2014, dated 2018).

Chain of phosphorylated active hERK2 enzyme (P28482 whole entry): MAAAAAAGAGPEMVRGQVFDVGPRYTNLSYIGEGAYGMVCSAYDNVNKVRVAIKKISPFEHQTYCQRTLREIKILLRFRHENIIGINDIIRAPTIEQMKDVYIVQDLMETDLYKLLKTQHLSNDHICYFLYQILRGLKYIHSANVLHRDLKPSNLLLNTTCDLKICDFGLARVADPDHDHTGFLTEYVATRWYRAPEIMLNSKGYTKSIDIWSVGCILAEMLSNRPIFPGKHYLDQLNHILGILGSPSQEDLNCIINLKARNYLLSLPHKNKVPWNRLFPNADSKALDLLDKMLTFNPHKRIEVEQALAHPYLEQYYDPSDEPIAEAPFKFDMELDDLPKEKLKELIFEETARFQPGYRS

The first assay concerns the target phosphorylated active hERK2 enzyme (Homo sapiens (Human), UniProt P28482).
Details: not given
For orientation: IC50 means the concentration at which inhibition is half-maximal. Turning to `CCO[C@H]1CCC[C@@H]1NC(=O)Nc1cc2cnn(-c3ccnc(C)c3)c2cn1` (racemic) [Example 147, Racemic 1-[(1S,2S) and (1R,2R)-2-ethoxycyclopentyl]-3-[1-(2-methylpyridin-4-yl)-1H-pyrazolo[3,4-c]pyridin-5-yl]urea], 0.0337 µM corresponded to half-maximal inhibition (IC50).

Staying with this assay, now noted: ERK2 IC50, IMAP-FP assay; 0.5 nM hERK2, 30 μM ATP; 10 point titration, 3 μM starting concentration.
`Cc1cc(-n2ncc3cc(NC(=O)N[C@H]4CCCC[C@@H]4c4ccccc4)ncc32)ccn1` (racemic) [Example 169, Racemic trans 1-[1-(2-methylpyridin-4-yl)-1H-pyrazolo[3,4-c]pyridin-5-yl]-3-[(1S,2R) and (1R,2S)-2-phenylcyclohexyl]urea] had an IC50 of 0.0657 µM.

Still in this assay, the particulars now being: read-out: ERK2 IC50; IMAP-FP assay; 0.5 nM hERK2, 30 μM ATP; 10 point titration, 3 μM starting concentration.
Turning to `C[C@@H](NC(=O)Nc1cc2cnn(-c3ccc(F)cc3)c2c(COCCO)n1)c1ccccc1` [Example 246, 1-{1-(4-fluorophenyl)-7-[(2-hydroxyethoxy)methyl]-1H-pyrazolo[3,4-c]pyridin-5-yl}-3-[(1R)-1-phenylethyl]urea], the IC50 was 0.0522 µM.

For the compound `COCCn1ncc2cc(NC(=O)N[C@H](C)c3ccccc3)nc(CO)c21` [Example 312, 1-[7-(hydroxymethyl)-1-(2-methoxyethyl)-1H-pyrazolo[3,4-c]pyridin-5-yl]-3-[(1R)-1-phenylethyl]urea], the IC50 amounted to 0.296 µM.

With `Cc1cc(-n2ncc3cc(NC(=O)N[C@H]4[C@H](c5ccccc5C)CN(C)C4(C)C)ncc32)ccn1` [Example 102, 1-[1-(2-methylpyridin-4-yl)-1H-pyrazolo[3,4-c]pyridin-5-yl]-3-[(3S,4R)-1,2,2-trimethyl-4-(2-methylphenyl)pyrrolidin-3-yl)urea], the IC50 is 0.235 µM.

For the compound `CO[C@H]1CN(Cc2c(F)cccc2F)C[C@@H]1NC(=O)Nc1cc2cnn(-c3ccnc(C)c3)c2cn1` [Example 269, 1-[(3S,4S)-1-(2,6-difluorobenzyl)-4-methoxypyrrolidin-3-yl]-3-[1-(2-methylpyridin-4-yl)-1H-pyrazolo[3,4-c]pyridin-5-yl]urea], the IC50 was found to be 0.00539 µM.

With `Cc1cc(-n2ncc3cc(NC(=O)NC4CCN(C)C4=O)ncc32)ccn1` (stereo not drawn) [Example 23, 1-(1-methyl-2-oxopyrrolidin-3-yl)-3-[1-(2-methylpyridin-4-yl)-1H-pyrazolo[3,4-c]pyridin-5-yl)urea], the IC50 was determined as 0.314 µM.

`C[C@@H](NC(=O)Nc1cc2cnn(-c3cnn(C)c3)c2cn1)c1ccc(F)c(Cl)c1` [Example 205, (R)-1-(1-(3-chloro-4-fluorophenyl)ethyl)-3-(1-(1-methyl-1H-pyrazol-4-yl)-1H-pyrazolo[3,4-c]pyridin-5-yl)urea]: the IC50 came out at 0.0121 µM.

As for `Cc1cc(-n2ncc3cc(NC(=O)N[C@H](COC(C)C)c4ccccc4)ncc32)ccn1` [Example 135, 1-[(1S)-2-(1-methylethoxy)-1-phenylethyl]-3-[1-(2-methylpyridin-4-yl)-1H-pyrazolo[3,4-c]pyridin-5-yl]urea], the IC50 came to 0.000786 µM.

For the compound `Cc1cc(-n2ncc3cc(NC(=O)N[C@H]4CN(CC(F)(F)F)C[C@@H]4c4ccccc4)ncc32)ccn1` [Example 156, 1-[1-(2-methylpyridin-4-yl)-1H-pyrazolo[3,4-c]pyridin-5-yl]-3-[(3R,4S)-4-phenyl-1-(2,2,2-trifluoroethyl)pyrrolidin-3-yl)urea], the half-inhibitory concentration (IC50) amounted to 0.00885 µM.

With `C[C@@H](NC(=O)Nc1cc2cnn(CC3COC3)c2c(CO)n1)c1ccccc1` [Example 315, 1-[7-(hydroxymethyl)-1-(oxetan-3-ylmethyl)-1H-pyrazolo[3,4-c]pyridin-5-yl]-3-[(1R)-1-phenylethyl]urea], the half-maximal inhibitory concentration (IC50) was 0.143 µM.

On to `Cc1cc(-n2ncc3cc(NC(=O)N[C@@H](CN)c4ccccc4)ncc32)ccn1` [Example 186, 1-[(1R)-2-amino-1-phenylethyl]-3-[1-(2-methylpyridin-4-yl)-1H-pyrazolo[3,4-c]pyridin-5-yl]urea], for which the IC50 is 0.0425 µM.

With `Cc1cc(-n2ncc3cc(NC(=O)NCc4cccc(-c5ccon5)c4)ncc32)ccn1` [Example 98, 1-(3-isoxazol-3-ylbenzyl)-3-[1-(2-methylpyridin-4-yl)-1H-pyrazolo[3,4-c]pyridin-5-yl]urea], the IC50 amounted to 0.00168 µM.

As for `Cc1cnc(-n2ncc3cc(NC(=O)N[C@H](C)c4ccccc4)ncc32)cn1` [Example 212, 1-[1-(5-methylpyrazin-2-yl)-1H-pyrazolo[3,4-c]pyridin-5-yl]-3-[(1R)-1-phenylethyl]urea], the IC50 is 0.521 µM.

Take `CCN1C[C@H](NC(=O)Nc2cc3cnn(-c4ccnc(C)c4)c3cn2)[C@@H](Oc2cncc(F)c2)C1` [Example 277, 1-{(3S,4S)-1-ethyl-4-[(5-fluoropyridin-3-yl)oxy]pyrrolidin-3-yl}-3-[1-(2-methylpyridin-4-yl)-1H-pyrazolo[3,4-c]pyridin-5-yl]urea]: the IC50 amounted to 0.594 µM.

For `CO[C@H]1CN(C)C[C@@H]1NC(=O)Nc1cc2cnn(-c3ccnc(C)c3)c2cn1` [Example 291, 1-[(3S,4S)-4-methoxy-1-methylpyrrolidin-3-yl]-3-[1-(2-methylpyridin-4-yl)-1H-pyrazolo[3,4-c]pyridin-5-yl]urea], the IC50 is 0.0464 µM.

Take `Cc1cc(-n2ncc3cc(NC(=O)N[C@H](C)c4ccccn4)ncc32)ccn1` [Example 204, 1-[1-(2-methylpyridin-4-yl)-1H-pyrazolo[3,4-c]pyridin-5-yl]-3-[(1R)-1-pyridin-2-ylethyl]urea]: the IC50 is 0.00784 µM.

`Cc1cc(-n2ncc3cc(NC(=O)NCC(C)O)ncc32)ccn1` (stereo not drawn) [Example 120, 1-(2-hydroxypropyl)-3-[1-(2-methylpyridin-4-yl)-1H-pyrazolo[3,4-c]pyridin-5-yl)urea]: the IC50 was 0.107 µM.

`Cc1cc(-n2ncc3cc(NC(=O)NCc4ccc(N5CCCC5=O)cc4)ncc32)ccn1` [Example 91, 1-[1-(2-methylpyridin-4-yl)-1H-pyrazolo[3,4-c]pyridin-5-yl]-3-[4-(2-oxopyrrolidin-1-yl)benzyl]urea]: the IC50 is 0.332 µM.

For `CCn1ncc2cc(NC(=O)N[C@H](C)c3ccccc3)nc(CO)c21` [Example 299, 1-[1-Ethyl-7-(hydroxymethyl)-1H-pyrazolo[3,4-c]pyridin-5-yl]-3-[(1R)-1-phenylethyl]urea], the IC50 stood at 0.0181 µM.

As to `Cc1cc(-n2ncc3cc(NC(=O)NC4CCCN(Cc5c(F)cccc5F)C4)ncc32)ccn1` (stereo not drawn) [Example 266, 1-[1-(2,6-difluorobenzyl)piperidin-3-yl]-3-[1-(2-methylpyridin-4-yl)-1H-pyrazolo[3,4-c]pyridin-5-yl]urea], the IC50 came out at 0.00278 µM.

As for `C[C@@H](NC(=O)Nc1cc2cnn(C3CCOCC3)c2cn1)c1ccccc1` [Example 238, 1-[(1R)-1-phenylethyl]-3-[1-(tetrahydro-2H-pyran-4-yl)-1H-pyrazolo[3,4-c]pyridin-5-yl]urea], the IC50 came to 0.147 µM.

Consider `Cc1cc(-n2ncc3cc(NC(=O)NCc4ccc(F)c(Cl)c4)ncc32)ccn1` [Example 214, 1-(3-chloro-4-fluorobenzyl)-3-[1-(2-methylpyridin-4-yl)-1H-pyrazolo[3,4-c]pyridin-5-yl]urea], for which the IC50 worked out at 0.00405 µM.

With `COCCOCc1nc(NC(=O)N[C@H](C)c2ccccc2)cc2cnn(-c3ccnc(C)c3)c12` [Example 248, 1-{7-[(2-methoxyethoxy)methyl]-1-(2-methylpyridin-4-yl)-1H-pyrazolo[3,4-c]pyridin-5-yl}-3-[(1R)-1-phenylethyl]urea], the IC50 was found to be 0.0114 µM.
